Reference: US20040198789A1, “Lercanidipine/ARB/diuretic therapeutic combinations” (Recordati Ireland Limited, priority 2003, published 2004)
“And” between values parts separate entries of the source, which are not always exact repeats. Equal entries are not always repeated.

Legend:
[1] = cited from earlier work
[2] = system: reperfusion-induced hypertension in uninephrectomized anesthetized rats; assay: Model of acute angiotensin-mediated renal hypertension in anesthetized rats (SBP, DBP, HR); format: in vivo, rat
[3] = following oral administration; cited from earlier work
[4] = system: isolated rat aorta; conditions: in vitro; even after repeated wash-out during 6 hours; cited from earlier work
[5] = system: reperfusion-induced hypertension in uninephrectomized anesthetized rats; assay: Model of acute angiotensin-mediated renal hypertension in anesthetized rats (SBP, DBP, HR); format: in vivo, rat; remark: listed apart in the source
Experimental: Male Sprague-Dawley rats, weighing 250-300 g, were anaesthetized with pentobarbital sodium (35 mg/kg, i.p.) and placed on a thermic blanket. The temperature was maintained at 37° C. with a thermoregulator via a rectal probe. The animals were tracheotomized to facilitate spontaneous breathing. A polyethylene catheter was placed in the left jugular vein to allow for infusion of pentobarbital sodium to maintain anesthesia. The left femoral vein and artery were cannulated with polyethylene catheters to allow drugs administration and to monitor blood pressure, respectively.
Animals then underwent a left nephrectomy by excising the left kidney via a flank incision. The right kidney and renal vein, artery and ureter were then exposed via a right retroperitoneal incision, under a dissecting microscope. Silk threads were placed around both vessels and ureter. The cavity was then covered with Vaseline oil.
After 30-60 minutes of basal recordings of arterial blood pressure and heart rate the threads around the renal vessels and ureter were tied close to the renal hilum to induce complete renal ischemia of the right kidney. After 2 hours of ischemia, the threads were removed to allow renal reperfusion and urine output.
For irbesartan experiments and comparisons, control (vehicle) or drug (irbesartan (100 μg/kg), lercanidipine (7.5 μg/kg), or both lercanidipine (7.5 μg/kg) and irbesartan (100 μg/kg)) were administered intravenously at 5 min after reperfusion was begun.
Results were expressed as mean values ±S.E. (in the tables) and in percent change observed.
To evaluate the effects of drugs administration on blood pressure and heart rate within each group, two-way ANOVA and Dunnet's test were used (“within treatment”). To evaluate the statistical differences among the treatment groups, data are analyzed using a three-way ANOVA (analysis of variance) with repeated measures on factor time and pre-planned multiple comparisons. The analysis was performed using, for each treatment, delta values (log transformation). […] (“between treatments”).

[6] = between treatments, three-way ANOVA on delta values, lercanidipine 10 μg/kg, valsartan 30 μg/kg i.v.
[7] = within treatment vs […], lercanidipine 10 μg/kg or valsartan 30 μg/kg i.v.
[8] = between treatments, three-way ANOVA on delta values, lercanidipine 7.5 μg/kg, irbesartan 100 μg/kg i.v.
[9] = between treatments, three-way ANOVA on delta values, lercanidipine 7.5 μg/kg, olmesartan free acid 10 μg/kg i.v.
[10] = lercanidipine 7.5 μg/kg i.v., n=6, time 0 min, basal, pre-drug
[11] = lercanidipine 7.5 μg/kg i.v., n=6, time 120 min, end of ischemia, pre-drug
[12] = lercanidipine 7.5 μg/kg i.v., n=6, time 130 min, 5 min after drug
[13] = lercanidipine 7.5 μg/kg i.v., n=6, time 135 min, 10 min after drug
[14] = lercanidipine 7.5 μg/kg i.v., n=6, time 150 min, 25 min after drug
[15] = lercanidipine 7.5 μg/kg i.v., n=6, time 165 min, 40 min after drug
[16] = lercanidipine 7.5 μg/kg i.v., n=6, time 180 min, 55 min after drug
[17] = lercanidipine 7.5 μg/kg i.v., n=6, time […], 5 min reperfusion, pre-drug
[18] = lercanidipine 10 μg/kg i.v., n=5, time 0 min, basal, pre-drug
[19] = lercanidipine 10 μg/kg i.v., n=5, time 120 min, end of ischemia, pre-drug
[20] = lercanidipine 10 μg/kg i.v., n=5, time 130 min, 5 min after drug
[21] = lercanidipine 10 μg/kg i.v., n=5, time 135 min, 10 min after drug
[22] = lercanidipine 10 μg/kg i.v., n=5, time 150 min, 25 min after drug
[23] = lercanidipine 10 μg/kg i.v., n=5, time 165 min, 40 min after drug
[24] = lercanidipine 10 μg/kg i.v., n=5, time 180 min, 55 min after drug
[25] = lercanidipine 10 μg/kg i.v., n=5, time […], 5 min reperfusion, pre-drug

## COC(=O)C1=C(C)NC(C)=C(C(=O)OC(C)(C)CN(C)CCC(c2ccccc2)c2ccccc2)C1c1cccc([N+](=O)[O-])c1 (stereo not drawn) [lercanidipine, methyl 1,1,N-trimethyl-N-(3,3-diphenylpropyl)-2-aminoethyl 1,4-dihydro-2,6-dimethyl-4-(3-nitrophenyl)pyridine-3,5-dicarboxylate]
[1]; hypertensive patients on lercanidipine
  tachycardia reported as a side effect, patients: 0-9%
[1]; patients administered lercanidipine
  heart palpitations, patients reporting: 0-9%
[2]; [6]
  Diastolic blood pressure: general differences among groups: p vs Vehicle: p < 0.01
  Heart rate: general differences among groups: p vs Vehicle: p < 0.05
  Systolic blood pressure: general differences among groups: p vs Vehicle: ns
[2]; lercanidipine 10 μg/kg, valsartan 30 μg/kg i.v., alone or together
  effect on heart rate (in words): positive chronotropic effect
[2]; [7]
  time of statistically significant decrease in diastolic blood pressure after administration: 5 to 55 min
[3]
  time of peak serum/plasma concentration: 2 to 3 h
[4]
  isolated rat aorta response to high K+: attenuated
[5]; [8]
  Diastolic blood pressure: general differences among groups: p vs Irbesartan: ns
  Diastolic blood pressure: general differences among groups: p vs Vehicle: p < 0.05
  Heart rate differences among groups: p vs Irbesartan: p < 0.001
  Heart rate differences among groups: p vs Vehicle: p < 0.01
  Systolic blood pressure differences among groups: p vs Irbesartan: ns
  Systolic blood pressure differences among groups: p vs Vehicle: ns
[5]; [9]
  Diastolic blood pressure differences among treatment groups: p vs Olmesartan: ns
  Diastolic blood pressure differences among treatment groups: p vs Vehicle: p < 0.05
  Heart rate differences among treatment groups: p vs Olmesartan: p < 0.001
  Heart rate differences among treatment groups: p vs Vehicle: p < 0.01
  Systolic blood pressure differences among treatment groups: p vs Olmesartan: ns
  Systolic blood pressure differences among treatment groups: p vs Vehicle: ns
[5]; [6]
  Diastolic blood pressure: general differences among groups: p vs Valsartan: ns
  Heart rate: general differences among groups: p vs Valsartan: p < 0.01
  Systolic blood pressure: general differences among groups: p vs Valsartan: ns
[5]; [10]
  DBP: 75.7 ± 1.7 mmHg
  HR: 383.3 ± 12.0 beats/min
  SBP: 120.7 ± 3.5 mmHg
[5]; [11]
  DBP: 63.3 ± 2.9 mmHg
  HR: 381.7 ± 7.5 beats/min
  SBP: 105.2 ± 5.3 mmHg
[5]; [12]
  HR: 434.2 ± 15.3 b beats/min
  SBP: 136.7 ± 7.4 mmHg
[5]; [13]
  HR: 426.7 ± 14.3 b beats/min
  SBP: 140.7 ± 7.1 mmHg and 140.7 ± 7.1b mmHg
[5]; [14]
  HR: 411.7 ± 12.8 b beats/min
  SBP: 143.2 ± 7.2 mmHg
[5]; [15]
  HR: 411.7 ± 15.6 b beats/min
  SBP: 144.5 ± 9.1 mmHg
[5]; [16]
  HR: 410.0 ± 18.3 b beats/min
  SBP: 136.8 ± 8.4 mmHg and 136.8 ± 8.4b mmHg
[5]; [17]
  DBP: 117.2 ± 4.4 mmHg
  HR: 346.7 ± 8.4 beats/min
  SBP: 160.7 ± 8.5 mmHg
[5]; lercanidipine 7.5 μg/kg, irbesartan 100 μg/kg i.v., alone or together
  effect on heart rate (in words): increase in heart rate
[5]; lercanidipine 7.5 μg/kg, irbesartan 100 μg/kg i.v., alone or together, 5 min after reperfusion
  effect on blood pressure (in words): statistically significant decrease in both systolic and diastolic blood pressure
[5]; lercanidipine 7.5 μg/kg, olmesartan free acid 10 μg/kg i.v., alone or together
  effect on heart rate (in words): increase in heart rate
[5]; [18]
  DBP: 69.8 ± 4.1 mmHg
  HR: 350.0 ± 3.2 beats/min
  SBP: 133.8 ± 6.1 mmHg
[5]; [19]
  DBP: 64.6 ± 4.5 mmHg
  HR: 350.0 ± 3.5 beats/min
  SBP: 134.8 ± 6.2 mmHg
[5]; [20]
  DBP: 77.4 ± 4.1 b mmHg
  HR: 434.0 ± 27.9 b beats/min
  SBP: 149.2 ± 5.4 mmHg
[5]; [21]
  DBP: 77.8 ± 3.2 b mmHg
  HR: 438.0 ± 22.2 b beats/min
  SBP: 145.4 ± 5.0 b mmHg
[5]; [22]
  DBP: 76.4 ± 7.2 b mmHg
  HR: 425.0 ± 14.7 b beats/min
  SBP: 143.8 ± 5.5 b mmHg
[5]; [23]
  DBP: 78.4 ± 8.4 b mmHg
  HR: 423.0 ± 15.1 b beats/min
  SBP: 138.2 ± 8.6 b mmHg
[5]; [24]
  DBP: 76.2 ± 7.3 b mmHg
  HR: 421.0 ± 14.7 b beats/min
  SBP: 138.8 ± 4.9 b mmHg
[5]; [25]
  DBP: 105.6 ± 5.0 mmHg
  HR: 345.0 ± 5.5 beats/min
  SBP: 167.6 ± 4.0 mmHg
[5]; within treatment vs […], lercanidipine 7.5 μg/kg or olmesartan free acid 10 μg/kg i.v.
  time of statistically significant decrease in diastolic blood pressure after administration: 5 to 55 min
[5]; [7]
  time of statistically significant decrease in systolic blood pressure after administration: 10 to 55 min
